For experiment [1], the target named is T1, recombinant human 5-HT2A receptor (Homo sapiens, UniProt P28223).
T1 construct: expressed in transfected cells; membranes)
The experiment in a line: Radioligand binding, [3H]Ketanserin competition, 5-HT2A. Conditions: [3H]Ketanserin displacement, membranes of CHO-K1 cells, pH 7.4, 32° C.; read-out: pKi for 5-HT2A (converted). As to the method:
(§1) The binding activity of compounds of this invention in vitro was determined as follows. Duplicate determinations of 5-HT6 ligand affinity were made by competing for binding of [^3H]LSD in cell membranes derived from HEK293 cells stably expressing recombinant human 5-HT6 receptor. Duplicate determinations of 5-HT2A ligand affinity were made by competing for binding of [^3H]Ketanserin (3-(2-(4-(4-fluorobenzoyl)piperidinol)ethyl)-2,4(1H,3H)-quinazolinedione) in cell membranes derived from CHO-K1 cells stably expressing recombinant human 5-HT2A receptor. Membranes were prepared from HEK 293 cell lines by the method described by Monsma et al., Molecular Pharmacology, Vol. 43 pp. 320-327 (1993), and from CHO-K1 cell lines as described by Bonhaus et al., Br J Pharmacol. Jun; 115 (4):622-8 (1995).
(§2) For estimation of affinity at the 5-HT6 receptor, all determinations were made in assay buffer containing 50 mM Tris-HCl, 10 mM MgSO4, 0.5 mM EDTA, 1 mM ascorbic acid, pH 7.4 at 37° C., in a 250 microliter reaction volume. […]
(§3) Assay tubes containing [^3H] […] LSD or [^3H]Ketanserin were determined as radioactive counts per minute using Packard TopCount.
(§4) Displacement of [^3H]LSD or [^3H]Ketanserin from the binding sites was quantified by fitting concentration-binding data to a 4-parameter logistic equation: […]

Experiment [2] has as its target T2, recombinant human 5-HT6 receptor (Homo sapiens, UniProt P50406).
T2 construct: expressed in transfected cells; membranes)
The experiment in a line: Radioligand binding, [3H]LSD competition, 5-HT6. To be noted: [3H]LSD displacement, membranes of HEK293 cells, pH 7.4, 37° C.; read-out: pKi for 5-HT6 (converted). How it is done: as §1, §2, §3, §4

T1 sequence (P28223 whole entry): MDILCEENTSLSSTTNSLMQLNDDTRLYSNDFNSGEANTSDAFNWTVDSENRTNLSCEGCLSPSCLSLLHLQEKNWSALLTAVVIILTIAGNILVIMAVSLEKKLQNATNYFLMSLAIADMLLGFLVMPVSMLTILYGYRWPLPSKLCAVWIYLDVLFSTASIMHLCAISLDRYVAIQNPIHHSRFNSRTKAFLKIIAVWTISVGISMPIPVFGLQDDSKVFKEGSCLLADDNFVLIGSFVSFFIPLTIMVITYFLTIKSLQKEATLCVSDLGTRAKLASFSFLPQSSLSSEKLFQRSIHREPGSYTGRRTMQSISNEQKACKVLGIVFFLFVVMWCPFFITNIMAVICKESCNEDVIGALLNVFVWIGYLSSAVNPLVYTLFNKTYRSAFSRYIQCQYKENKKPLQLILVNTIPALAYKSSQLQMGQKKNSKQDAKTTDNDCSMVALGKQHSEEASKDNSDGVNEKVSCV
T2 sequence (P50406 whole entry): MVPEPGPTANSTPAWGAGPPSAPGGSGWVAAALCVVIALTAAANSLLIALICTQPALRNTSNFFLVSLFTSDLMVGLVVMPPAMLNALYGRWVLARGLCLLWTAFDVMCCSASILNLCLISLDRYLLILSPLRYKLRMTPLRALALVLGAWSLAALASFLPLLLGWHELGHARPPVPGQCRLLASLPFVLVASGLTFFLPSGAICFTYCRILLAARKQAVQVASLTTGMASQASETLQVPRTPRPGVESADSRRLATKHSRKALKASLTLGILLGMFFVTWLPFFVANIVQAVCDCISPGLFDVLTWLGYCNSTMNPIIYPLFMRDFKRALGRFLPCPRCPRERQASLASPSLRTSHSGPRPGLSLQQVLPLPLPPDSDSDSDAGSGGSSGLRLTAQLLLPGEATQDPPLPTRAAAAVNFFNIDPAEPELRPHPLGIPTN

For the compound `CN1CCN(C2CCCc3cc(S(=O)(=O)c4ccccc4)ccc32)CC1` (centres unmarked) [Compound 11, 1-(6-Benzenesulfonyl-1,2,3,4-tetrahydro-naphthalen-1-yl)-4-methyl-piperazine], the Ki in experiment [1] is approximately 17.4 nM; in experiment [2], approximately 0.302 nM.

For the origin of these results see US7473690B2, “Tetralin and indane derivatives and uses thereof” (Roche Palo Alto LLC, priority 2004, dated 2009).
